The target in series [1] is 5-hydroxytryptamine receptor 2A (Homo sapiens, UniProt P28223). Briefly: biochemical.
Description: Displacement of [125I]DOI from human recombinant 5HT2A receptor expressed in HEK293 cells after 1 hr by scintillation counting
Series [2] concerns the target T1, 5-hydroxytryptamine receptor 2C (Homo sapiens, UniProt P28335).
T1 sequence (P28335 whole entry): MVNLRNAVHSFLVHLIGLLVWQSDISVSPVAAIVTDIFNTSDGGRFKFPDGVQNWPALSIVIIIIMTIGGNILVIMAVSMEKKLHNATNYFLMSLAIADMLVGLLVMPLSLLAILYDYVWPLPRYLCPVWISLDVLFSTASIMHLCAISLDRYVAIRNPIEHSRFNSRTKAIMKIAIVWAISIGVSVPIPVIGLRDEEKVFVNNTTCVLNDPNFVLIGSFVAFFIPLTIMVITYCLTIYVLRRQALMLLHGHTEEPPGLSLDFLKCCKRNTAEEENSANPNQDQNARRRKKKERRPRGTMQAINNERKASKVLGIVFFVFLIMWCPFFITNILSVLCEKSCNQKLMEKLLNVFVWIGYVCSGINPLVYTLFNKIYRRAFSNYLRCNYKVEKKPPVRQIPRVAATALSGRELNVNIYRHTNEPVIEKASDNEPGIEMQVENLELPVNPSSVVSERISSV
Format: cell-based, HEK293.

In series [3] the target is hERG (KCNH2) (Homo sapiens, UniProt Q12809). The series is described as follows: Inhibition of human ERG at 3 uM by patch clamp electrophysiology assay. A general note: Patch clamp records ionic current or voltage across a cell membrane.
The nature of series [4]: Half life in rat liver microsomes. The format is ADME, Microsome. For orientation: Liver microsomes are a subcellular fraction often used to study metabolism.

Where only a bound is given, the exact number is not on record here.

Usually Ki stands for a measure of affinity in units of concentration, obtained from inhibition or displacement. In general, inhibition refers to the relative decrease from the control value, in per cent. A high value points to strong suppression. A word on the half-life: it is the time needed for the level to fall by half in the phase considered. Read a low half-life as rapid decline.

5-hydroxytryptamine receptor 2A, sequence (P28223 whole entry): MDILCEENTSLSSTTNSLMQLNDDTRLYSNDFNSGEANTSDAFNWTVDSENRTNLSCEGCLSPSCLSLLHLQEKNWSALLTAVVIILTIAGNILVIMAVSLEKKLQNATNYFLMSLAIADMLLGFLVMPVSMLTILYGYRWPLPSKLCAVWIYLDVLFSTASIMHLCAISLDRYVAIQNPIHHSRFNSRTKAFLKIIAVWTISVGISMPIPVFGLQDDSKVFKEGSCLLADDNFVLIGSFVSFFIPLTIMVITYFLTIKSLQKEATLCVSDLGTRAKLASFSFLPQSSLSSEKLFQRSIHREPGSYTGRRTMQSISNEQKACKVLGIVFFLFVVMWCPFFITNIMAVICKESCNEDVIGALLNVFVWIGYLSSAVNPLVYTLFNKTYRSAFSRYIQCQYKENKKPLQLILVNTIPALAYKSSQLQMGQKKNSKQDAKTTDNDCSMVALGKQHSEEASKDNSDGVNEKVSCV
hERG (KCNH2), sequence (Q12809 whole entry): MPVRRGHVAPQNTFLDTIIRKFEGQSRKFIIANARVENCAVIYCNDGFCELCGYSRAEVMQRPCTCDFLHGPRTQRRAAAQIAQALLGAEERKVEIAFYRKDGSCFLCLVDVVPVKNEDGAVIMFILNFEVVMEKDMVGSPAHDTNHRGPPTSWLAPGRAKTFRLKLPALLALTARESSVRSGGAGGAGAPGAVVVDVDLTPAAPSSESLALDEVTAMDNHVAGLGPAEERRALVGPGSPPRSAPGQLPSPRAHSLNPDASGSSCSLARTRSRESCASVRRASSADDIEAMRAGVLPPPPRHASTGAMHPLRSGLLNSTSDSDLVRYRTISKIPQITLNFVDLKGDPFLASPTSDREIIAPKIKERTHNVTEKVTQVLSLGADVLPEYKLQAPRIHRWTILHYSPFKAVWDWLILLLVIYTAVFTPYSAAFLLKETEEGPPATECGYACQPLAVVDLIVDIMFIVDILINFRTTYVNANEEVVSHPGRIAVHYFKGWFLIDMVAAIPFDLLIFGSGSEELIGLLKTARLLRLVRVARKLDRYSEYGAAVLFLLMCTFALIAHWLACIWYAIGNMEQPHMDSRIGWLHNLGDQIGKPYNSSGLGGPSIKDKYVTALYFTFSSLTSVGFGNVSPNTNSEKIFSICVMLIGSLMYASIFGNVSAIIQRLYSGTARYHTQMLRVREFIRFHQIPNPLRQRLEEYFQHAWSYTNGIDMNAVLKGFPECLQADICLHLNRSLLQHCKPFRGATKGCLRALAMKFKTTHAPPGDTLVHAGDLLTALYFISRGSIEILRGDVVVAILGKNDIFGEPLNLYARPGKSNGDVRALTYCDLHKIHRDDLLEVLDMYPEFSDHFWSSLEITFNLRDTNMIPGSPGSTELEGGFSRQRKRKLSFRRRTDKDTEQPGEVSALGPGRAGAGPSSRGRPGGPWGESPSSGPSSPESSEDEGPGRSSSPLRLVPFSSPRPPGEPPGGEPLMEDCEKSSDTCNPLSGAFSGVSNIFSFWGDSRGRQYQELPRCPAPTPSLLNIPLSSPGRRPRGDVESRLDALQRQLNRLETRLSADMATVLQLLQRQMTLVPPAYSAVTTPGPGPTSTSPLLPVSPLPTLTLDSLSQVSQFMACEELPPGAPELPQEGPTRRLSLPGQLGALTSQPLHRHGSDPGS

As to `Cn1cc(Br)c(C(=O)N2CCN(CCc3ccc(Cl)cc3)CC2)n1`, the inhibitory constant (Ki) in series [1] was 34 nM; in series [2], > 10000 nM.

Take `Cn1cc(Br)c(C(=O)N2CCN(CC(O)c3ccc(F)cc3)CC2)n1` (centres undefined): the inhibition constant Ki in series [1] is 368 nM; in series [2] it was > 10000 nM.

Take `Cc1cc(C(=O)N2CCN(CC(=O)c3ccc(F)cc3)CC2)[nH]n1`: the values for the Ki in series [1] and in series [2] were 36 nM and > 10000 nM, respectively.

On to `Cn1cc(Br)c(C(=O)N2CCN(CCc3cccc(F)c3)CC2)n1`, for which the Ki is 542 nM in series [1] and > 10000 nM in series [2].

With `Cn1cc(Br)c(C(=O)N2CCN(CCN3C(=O)c4ccccc4C3=O)CC2)n1`, the Ki in series [1] and in series [2] was > 10000 nM in each case.

Turning to `Cn1cc(Br)c(C(=O)N2CCN(CC(=O)c3ccc(C(F)(F)F)cc3)CC2)n1`, the inhibition constant Ki in series [1] is 865 nM; in series [2] it was > 10000 nM.

`Cn1cc(C(F)(F)F)c(C(=O)N2CCN(CC(=O)c3ccc(F)cc3)CC2)n1`: the results for the inhibition constant (Ki) in series [1] and in series [2] were 28 nM and 3870 nM, respectively.

On to `Cc1cc(C(=O)N2CCN(CC(=O)c3ccc(F)cc3)CC2)nn1C`, for which the results for the Ki in series [1] and in series [2] were 8.5 nM and > 10000 nM, respectively.

Regarding `Cn1cc(Br)c(C(=O)N2CCN(CCc3ccccc3F)CC2)n1`, the Ki in series [1] is 18 nM; in series [2], > 10000 nM.

As to `Cc1[nH]nc(C(=O)N2CCN(CC(=O)c3ccc(F)cc3)CC2)c1Br`, the values for the Ki in series [1] and in series [2] were 4.6 nM and 3570 nM, respectively.

Regarding `CO/N=C(/CN1CCN(C(=O)c2nn(C)cc2Br)CC1)c1ccc(F)cc1`, the Ki in series [1] was 2470 nM; in series [2], 8600 nM.

On to `Cn1cc(Br)c(C(=O)N2CCN(CCc3ccc(F)cc3F)CC2)n1`, for which the Ki in series [1] is 1.1 nM; in series [2] it was 2820 nM. The compound further returned an inhibition at 3 µM in series [3] of 80%. The compound further yielded a half-life in series [4] of 9 min.

With `Cn1cc(Br)c(C(=O)N2CCN(CC(=O)c3ccc(OC(F)(F)F)cc3)CC2)n1`, the Ki in series [1] is 6000 nM; in series [2] it was 5610 nM.

For the compound `COc1ccc(NC(=O)N2CCN(CCc3ccc(F)cc3)CC2)cc1-c1c(Cl)cnn1C`, the Ki in series [1] is 155 nM; in series [2], > 10000 nM.

`Cc1cc(C(=O)N2CCN(CC(=O)c3ccc(F)cc3)CC2)nn1C(C)(C)C`: the Ki in series [1] is 9.3 nM; in series [2] it was > 10000 nM.

As to `Cn1cc(Br)c(C(=O)N2CCN(CC(=O)c3ccccc3F)CC2)n1`, the results for the Ki in series [1] and in series [2] were 270 nM and 9800 nM, respectively.

Turning to `N#Cc1c[nH]c2c(C(=O)N3CCN(CCc4ccc(F)cc4)CC3)cccc12` [PRUVANSERIN], the inhibition constant Ki in series [1] was found to be 0.48 nM; in series [2], 645 nM.

Turning to `Cc1cc(C(=O)N2CCN(CC(=O)c3ccc(F)cc3)CC2)nn1-c1ccccc1`, the results for the Ki in series [1] and in series [2] were 11 nM and 3710 nM, respectively.

On to `Cn1cc(Br)c(C(=O)N2CCN(CCc3ccccc3)CC2)n1`, for which the Ki in series [1] is 68 nM; in series [2] it was > 10000 nM.

In the case of `Cn1cc(Br)c(C(=O)N2CCN(CC(=O)c3ccc(F)cc3F)CC2)n1`, the values for the inhibition constant Ki in series [1] and in series [2] were 70 nM and > 10000 nM, respectively.

Take `O=C(CN1CCN(C(=O)c2n[nH]cc2Cl)CC1)c1ccc(F)cc1`: the Ki in series [1] is 18.5 nM; in series [2] it was 2750 nM.

Consider `Cn1ccc(C(=O)N2CCN(CC(=O)c3ccc(F)cc3)CC2)n1`, for which the Ki is 37 nM in series [1] and 1420 nM in series [2].

Consider `O=C(Nc1[nH]ncc1Br)N1CCN(CCc2ccc(F)cc2)CC1`, for which the values for the Ki in series [1] and in series [2] were 88 nM and > 10000 nM, respectively.

On to `COc1ccc(CCN2CCN(C(=O)c3nn(C)cc3Br)CC2)cc1`, for which the Ki in series [1] is 408 nM; in series [2], > 10000 nM.

Take `Cn1cc(I)c(C(=O)N2CCN(CC(=O)c3ccc(F)cc3)CC2)n1`: the inhibition constant Ki in series [1] came out at 4.5 nM; in series [2] it was 3870 nM.

Consider `Cc1nc2n(c(=O)c1CCN1CCN(C(=O)c3nn(C)cc3Br)CC1)CCCC2`, for which the Ki in series [1] and in series [2] was > 10000 nM throughout.

(Values after ChEMBL document CHEMBL1212923, “Synthesis and in vivo evaluation of phenethylpiperazine amides: selective 5-hydroxytryptamine(2A) receptor antagonists for the treatment of insomnia” (J Med Chem, 2010).)
